This assay addresses T1, human PDE5, partially purified from human platelets (Homo sapiens, UniProt O76074).
T1 construct: human PDE5, partially purified from human platelets; from tissue; host or cells: human platelets
As to the kind of experiment: PDE5 Assay (SPA, 3H-cGMP). It is filed as biochemical. The procedure: 10 μL of each of these solutions is transferred to a selected well of a 96-well Optiplate microtitre plate (e.g., Packard). To determine total binding, 10 μL of aqueous 20% v/v DMSO is added to other selected wells. To determine non-specific binding, a 10 mM solution of sildenafil in 100% DMSO is diluted 20-fold with aqueous 20% v/v DMSO and 10 μL of the resulting solution is added to further selected wells of the Optiplate plate. […] (The PDE Assay Buffer is prepared by dissolving Tris-base (7.56 g) in water (800 mL), adding 1 M aqueous MgCl2 (10.325 mL) and 0.5 M EDTA (4.25 mL), adjusting the pH to 7.5 with 1N hydrochloric acid and making up to 1 L with water). A solution of human PDE5, partially purified from human platelets (11 μL, containing 0.017 units of PDE5 per mL, where 1 unit hydrolyses 1.0 μmole of 3′,5′-cyclic GMP to 5′-GMP per minute at pH 7.5 at 37° C.), in 20 mM Hepes, pH 7.4, 100 mM sodium chloride, 10% v/v glycerol, 1 mM benzamidine and 2 mM dithiotherietol, is diluted 200-fold, with Enzyme Buffer prepared by adding 0.5 M EDTA (2 mL) to a solution of Tris-Base (1.21 g) in water (800 mL), adjusting the pH to 7.5 with 1N HCl and making up to 1 L with water. The diluted PDE5 solution (10 μL) is added to all wells containing test compound, aqueous DMSO or sildenafil solution. The plate is incubated at room temperature for 1 hour. Fifty (50) μL of a suspension of 500 mg PDE Yttrium silicate SPA beads (e.g., Amersham) in 28 mL water is added to each of the wells and the plate is incubated for a further 20 minutes and then sealed using Top Seal-S (e.g., Packard) according to the manufacturer's instructions. The resulting scintillations are counted using a Canberra Packard Top Count (1 minute per well), as a measure of the extent to which binding of PDE5 to the beads is inhibited.

[1] abbreviates: human platelet PDE5, 3H-cGMP, room temperature 1 hour, yttrium silicate SPA beads, read-out: IC50 (concentration of test compound at which 50% inhibition of PDE5 binding to the beads occurs).

SMILES strings stand for the structures. Read-outs that look alike come from different tables or passages of the source.

In the case of `COc1cc2c(Cc3nc4c([nH]3)c(=O)n(C)c(=O)n4CC(C)C)cnc(C)c2cc1OC` [Example 7, 8-(6,7-dimethoxy-1-methyl-isoquinolin-4-ylmethyl)-3-isobutyl-1-methyl-3,7-dihydro-purine-2,6-dione], the IC50 was 7 nM.
Still for that read-out and setting: as for `COc1cc2cncc(Cc3nc4c([nH]3)c(=O)n(C)c(=O)n4CC(C)C)c2cc1OC` [Example 10, 8-(6,7-dimethoxy-isoquinolin-4-ylmethyl)-3-isobutyl-1-methyl-3,7-dihydro-purine-2,6-dione], the figure is 10 nM.
Still for that read-out and setting: as for `COc1cc2cncc(Cc3nc4c([nH]3)c(=O)n(C)c(=O)n4CC(C)(C)C)c2cc1OC` [Example 15], the figure is 6 nM.
For the molecule `COc1cc2c(Cc3nc4c([nH]3)c(=O)n(C)c(=O)n4CC(C)C)cnc(Cl)c2cc1OC` [Example 35, 8-(1-chloro-6,7-dimethoxy-isoquinolin-4-ylmethyl)-3-isobutyl-1-methyl-3,7-dihydro-purine-2,6-dione], the IC50 under setting [1] is 10 nM.
In turn, `COc1ccc2cncc(Cc3nc4c([nH]3)c(=O)n(C)c(=O)n4CC(C)C)c2c1` [Example 45, 3-isobutyl-8-(6-methoxy-isoquinolin-4-ylmethyl)-1-methyl-3,7-dihydro-purine-2,6-dione] registered an IC50 of 2 nM.
Turning to `COc1ccc2cncc(Cc3nc4c([nH]3)c(=O)n(C)c(=O)n4CC3CC3)c2c1` [Example 49], under setting [1], the IC50 was determined as 3.7 nM.
On to `C#Cc1ccc2cncc(Cc3nc4c([nH]3)c(=O)n(C)c(=O)n4CC(C)C)c2c1` [Example 55, 8-(6-ethynyl-isoquinolin-4-ylmethyl)-3-isobutyl-1-methyl-3,7-dihydro-purine-2,6-dione], for which the IC50 under setting [1] was determined as 5.5 nM.
On the same count and under the same terms, in the case of `COc1cc2cncc(Cc3nc4c([nH]3)c(=O)n(C)c(=O)n4Cc3ccc(NS(=O)(=O)N(C)C)cc3)c2cc1OC` [Example 60] it was 2.8 nM.
In turn, `COc1cc2cncc(Cc3nc4c([nH]3)c(=O)n(C)c(=O)n4CC(C)CO)c2cc1OC` (stereo not shown) [Example 68, 8-(6,7-dimethoxy-isoquinolin-4-ylmethyl)-3-(3-hydroxy-2-methyl-propyl)-1-methyl-3,7-dihydro-purine-2,6-dione] returned an IC50 of 7 nM.
With `COc1cc2cncc(Cc3nc4c(=O)n(C)c(=O)n(CC5(C)CC5)c4[nH]3)c2cc1OC` [Example 70, 8-(6,7-dimethoxy-isoquinolin-4-ylmethyl)-1-methyl-3-(1-methyl-cyclopropylmethyl)-3,9-dihydro-purine-2,6-dione], the IC50 under setting [1] is 9 nM.

Source of the values: US20030114469A1, “Combinations” (priority 2001, published 2003).
